Patent publication US20120190004A1, “METHODS AND COMPOSITIONS FOR THE CRYOPRESERVATION OF DUCKWEED” (Biolex Therapeutics, Inc., priority 2009, published 2012)

What was measured:
Experiment in all cases: Cryopreservation success rate after dormancy induction in sugar-supplemented medium
[1] = tested on: L. sp. Branson; type: in vivo; settings: for Cryopreservation success, in words: summary of Tables 6 and 7
Description: (§1) Lemna minor duckweed plants were cultured on Schenk and Hildebrandt media with 20 mg/ml sucrose at an aerial temperature of between 21° C. and 30° C. and light levels ranging from 200 μM·M^−2·sec^−1 to 450 μM·M^−2·sec^−1 for 1 day up to 1 year. Three frond colonies (each frond colony comprised one or more daughter fronds attached to the mother frond) were aseptically transferred into a 2.0-mL cryovial containing a 900 μL solution of Schenk and Hildebrandt media, […] step. The frond colonies were incubated in this sugar solution for 21-30 days. Each 24-hour photoperiod was comprised of fluctuations in temperature and light levels. Specifically, the daytime hours consisted of culturing the duckweed frond colony at an aerial temperature of 10° C. with a light level of about 25 μM·M^−2·sec^−1 to about 50 μM·M^−2·sec^−1 for a duration of 3 hours, followed by an aerial temperature of 15° C. at a light level of about 25 μM·M^−2·sec^−1 to about 75 μM·M^−2·sec^−1 for a duration of 6 hours, and an aerial temperature of 10° C. with a light level of about 25 μM^−2·sec^−1 to about 50 μM·M^−2·sec^−1 for a duration of 3 hours. During the nighttime hours of the 24-hour photoperiod, the duckweed frond colonies were cultured at an aerial temperature of 4° C. in the absence of light for a duration of 12 hours.
(§2) The duckweed frond colonies were dehydrated in a laminar flow hood in 900 μL of a cryoprotective solution, comprising 1.92 M DMSO, […], 3.26 M glycerol, and 0.4 M sucrose at pH 5.8. The cryovials were incubated in this solution at 4° C. for 30 minutes to 2 hours in the absence of light. Following the incubation, the cryoprotective solution was removed and replaced with 900 μL of fresh cryoprotective solution.
(§3) The duckweed frond colonies were frozen in a slow rate freezer according to the following freezing protocol. The cryovials containing the duckweed frond colonies were held at 4° C. and the temperature was lowered to −4° C. at 1° C. per minute, to −40° C. at 25° C. per minute, and then raised to −12° C. at 10° C. per minute. The temperature was again lowered to −40° C. at 1° C. per minute, to −90° C. at 10° C. per minute, and then lowered to −150° C. at 10° C. per minute. Once frozen, the vials containing the frond colonies were transferred to the vapor phase of liquid nitrogen for storage.
(§4) After up to 17 months in storage, the frozen duckweed frond colonies were thawed and recovered as follows. The vials containing the frozen duckweed frond colonies were transferred from the liquid nitrogen storage tank to a laminar flow hood and were thawed at room temperature for approximately ten minutes. The cryoprotective solution was removed and replaced with 900 μL of Schenk and Hildebrandt medium, supplemented with 1.2 M sucrose, followed by a ten minute incubation at room temperature. The 1.2 M sucrose was subsequently diluted by a series of five dilutions whereby 450 μL of the 1.2 M sucrose solution was removed and replaced with 450 μL of Schenk and Hildebrandt medium supplemented with 20 mg/ml sucrose. Following the serial dilutions, the frond colonies were transferred to a petri dish with Schenk and Hildebrandt medium, supplemented with 10 mg/ml sucrose and 1% (weight/volume) agar. The duckweed frond colonies were cultured at an aerial temperature of between 21° C. and 30° C. with light levels ranging from about 20 μM·M^−2·sec^−1 to about 100 μM·M^−2·sec^−1 for 7-14 days prior to calculating the success rate of the cryopreservation procedure.
(§5) The cryopreservation success rate was calculated by the total number of visible daughter fronds (or daughter fronds with viable tissue) to survive the freezing process and successfully reproduce new daughter fronds as a percentage of the total number of visible daughter fronds that were frozen. Viability of tissue or of daughter fronds was assessed by the presence of green tissue and the ability of these fronds or frond tissues to reproduce and generate new daughter fronds. […]

[2] = tested on: BAP01-B2-230 line; type: in vivo, Lemna minor; settings: sugars at two concentrations: 90 mg/ml (1X) and 270 mg/ml (3X)
Description: (§6) Lemna minor duckweed plants were cultured on Schenk and Hildebrandt media with 20 mg/ml sucrose at an aerial temperature of between 21° C. and 30° C. and light levels ranging from […] for 1 day up to 1 year. Three frond colonies (each frond colony comprised one or more daughter fronds attached to the mother frond) were aseptically transferred into a 2.0-mL cryovial containing a 900 μL solution of Schenk and Hildebrandt media, supplemented with 15 mg/ml of each D-trehalose dihydrate, sucrose, D-sorbitol, D-raffinose pentahydrate, D-glucose, and D-mannitol for the dormancy-induction step. The frond colonies were incubated in this sugar solution for 21-30 days. Each 24-hour photoperiod was comprised of fluctuations in temperature and light levels. Specifically, the daytime hours consisted of culturing the duckweed frond colony at an aerial temperature of 10° C. with a light level of about 25 μM·M^−2·sec^−1 to about 50 μM·M^−2·sec^−1 for a duration of 3 hours, followed by an aerial temperature of 15° C. at a light level of about 25 μM·M^−2·sec^−1 to about 75 μM·M^−2·sec^−1 for a duration of 6 hours, and an aerial temperature of 10° C. with a light level of about 25 μM^−2·sec^−1 to about 50 μM·M^−2·sec^−1 for a duration of 3 hours. During the nighttime hours of the 24-hour photoperiod, the duckweed frond colonies were cultured at an aerial temperature of 4° C. in the absence of light for a duration of 12 hours.
as §2, §3, §4
(§7) The cryopreservation success rate was calculated by the total number of visible daughter fronds (or daughter fronds with viable tissue) to survive the freezing process and successfully reproduce new daughter fronds as a percentage of the total number of visible daughter fronds that were frozen. […]

[3] = tested on: L. minor; type: in vivo, Lemna minor; settings: for Cryopreservation success rate: single sugars 90 mg/ml unless the label says 20 mg/ml, six sugar combo 15 mg/ml each; for Cryopreservation success, in words: summary of Tables 6 and 7
Description: as §6, §2, §3, §4, §7

[4] = tested on: Sp. polyrrhiza; type: in vivo, Spirodela polyrrhiza; settings: for Cryopreservation success rate: single sugars 90 mg/ml unless the label says 20 mg/ml, six sugar combo 15 mg/ml each; for Cryopreservation success, in words: summary of Tables 6 and 7
[5] = tested on: L. yungensis; type: in vivo, Lemna yungensis; settings: for Cryopreservation success rate: single sugars 90 mg/ml unless the label says 20 mg/ml, six sugar combo 15 mg/ml each; for Cryopreservation success, number of surviving fronds: sugar 90 mg/ml; for Cryopreservation success, in words: summary of Tables 6 and 7
[6] = tested on: IFN61-B2-101 line; type: in vivo, Lemna minor; settings: sugars at two concentrations: 90 mg/ml (1X) and 270 mg/ml (3X)
Description: as §1, §2, §3, §4, §5

[7] = tested on: L. minor; type: in vivo, Lemna minor; settings: sugars at two concentrations: 90 mg/ml (1X) and 270 mg/ml (3X)
[8] = first set of experiments, single sugars 90 mg/ml unless the label says 20 mg/ml, six sugar combo 15 mg/ml each, in Schenk and Hildebrandt media during dormancy induction
[9] = second set of experiments, single sugars 90 mg/ml unless the label says 20 mg/ml, six sugar combo 15 mg/ml each

| SMILES | Cryopreservation success rate [1, 8] | Cryopreservation success rate [1, 9] | Cryopreservation success rate ([3]; first set of experiments) | Cryopreservation success rate ([3]; second set of experiments) | Cryopreservation success, in words [3] | Cryopreservation success rate ([4]; first set of experiments) | Cryopreservation success rate ([4]; second set of experiments) | Cryopreservation success rate ([5]; first set of experiments) [%] | Cryopreservation success rate ([5]; second set of experiments) [%] | Cryopreservation success, in words [1] | Cryopreservation success, in words [4] | Cryopreservation success, number of surviving fronds ([5]; first set of experiments) [frond] | Cryopreservation success, number of surviving fronds ([5]; second set of experiments) | Cryopreservation success, in words [5] | also measured |
| --- | --- | --- | --- | --- | --- | --- | --- | --- | --- | --- | --- | --- | --- | --- | --- |
| O=C[C@H](O)[C@@H](O)[C@H](O)[C@H](O)CO [Glucose, glucose] | 88.5% (23/26) | 53.3% (8/15) | 5.9% (1/17) | 53.9% (7/13) | lower cryopreservation success rates | 0% (0/4) | 0% (0/4) | 0 | 0 |  |  |  |  |  | Cryopreservation success rate ([1]; sugars at two concentrations: 90 mg/ml (1X) and 270 mg/ml (3X), listed as Glucose 1X): 0% (0/11); Cryopreservation success rate ([1]; sugars at two concentrations: 90 mg/ml (1X) and 270 mg/ml (3X), listed as Glucose 3X): 0% (0/15); Cryopreservation success rate ([2]; listed as Glucose 1X): 0% (0/14); Cryopreservation success rate ([2]; listed as Glucose 3X): 0% (0/13); Cryopreservation success rate ([6]; listed as Glucose 1X): 5.3%; Cryopreservation success rate ([6]; listed as Glucose 3X): 0%; Cryopreservation success rate ([7]; listed as Glucose 1X): 0% (0/12); Cryopreservation success rate ([7]; listed as Glucose 3X): 0% (0/16) |
| OC[C@@H](O)[C@@H](O)[C@H](O)[C@H](O)CO [Mannitol, mannitol] | 33.3% (6/18) | 28.6% (4/14) | 0% (0/8) | 0% (0/14) | ineffective | 50% (4/8) | 57.1% (4/7) |  |  | low relative to the other sugars that were tested | successfully cryopreserved | 1 | 2 fronds | successfully cryopreserved |  |
| OC[C@H]1O[C@H](OC[C@H]2O[C@H](O[C@]3(CO)O[C@H](CO)[C@@H](O)[C@@H]3O)[C@H](O)[C@@H](O)[C@@H]2O)[C@H](O)[C@@H](O)[C@H]1O [Raffinose, raffinose] | 100% (23/23) | 100% (17/17) | 100% (16/16) | 92.9% (13/14) | prefers | 0% (0/6) | 0% (0/12) | 0 | 0 |  |  |  |  |  | Cryopreservation success rate ([1]; sugars at two concentrations: 90 mg/ml (1X) and 270 mg/ml (3X), listed as Raffinose 1X): 100% (20/20); Cryopreservation success rate ([1]; sugars at two concentrations: 90 mg/ml (1X) and 270 mg/ml (3X), listed as Raffinose 3X): 0% (0/12); Cryopreservation success rate ([2]; listed as Raffinose 1X): 96.2% (25/26); Cryopreservation success rate ([2]; listed as Raffinose 3X): 0% (0/14); Cryopreservation success rate ([6]; listed as Raffinose 1X): 100%; Cryopreservation success rate ([6]; listed as Raffinose 3X): 26.7%; Cryopreservation success rate ([7]; listed as Raffinose 1X): 96% (24/25); Cryopreservation success rate ([7]; listed as Raffinose 3X): 0% (0/19) |
| OC[C@@H](O)[C@@H](O)[C@H](O)[C@@H](O)CO [Sorbitol, sorbitol] | 27.3% (6/22) | 16.7% (2/12) | 0% (0/13) | 0% (0/4) | ineffective | 12.5% (1/8) | 25% (1/4) |  |  | low relative to the other sugars that were tested | successfully cryopreserved | 1 | 1 frond | successfully cryopreserved |  |
| OC[C@H]1O[C@H](O[C@H]2O[C@H](CO)[C@@H](O)[C@H](O)[C@H]2O)[C@H](O)[C@@H](O)[C@@H]1O [Trehalose, trehalose] | 100% (20/20) | 100% (16/16) | 100% (17/17) | 85.7% (12/14) | prefers | 0% (0/4) | 0% (0/15) | 0 | 0 |  |  |  |  |  | Cryopreservation success rate ([1]; sugars at two concentrations: 90 mg/ml (1X) and 270 mg/ml (3X), listed as Trehalose 1X): 100% (17/17); Cryopreservation success rate ([1]; sugars at two concentrations: 90 mg/ml (1X) and 270 mg/ml (3X), listed as Trehalose 3X): 0% (0/17); Cryopreservation success rate ([2]; listed as Trehalose 1X): 85% (17/20); Cryopreservation success rate ([2]; listed as Trehalose 3X): 0% (0/12); Cryopreservation success rate ([6]; listed as Trehalose 1X): 93.8%; Cryopreservation success rate ([6]; listed as Trehalose 3X): 7.1%; Cryopreservation success rate ([7]; listed as Trehalose 1X): 100% (15/15); Cryopreservation success rate ([7]; listed as Trehalose 3X): 0% (0/12) |
